# Molecular target: T1, BTK (Homo sapiens, UniProt Q06187)
# T1 construct: endogenous in cells; host or cells: TMD-8 cells
# Experiment: BTK degradation in TMD-8 cells, HTRF assay after 6 h treatment
# Format: cell-based
# Settings: IC50 (DC50) of BTK degradation
# Method in brief: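 Remaining BTK was quantified by HTRF in lysates of TMD-8 cells after 6 h exposure to an 8-point, 6-fold compound series (500× stocks in DMSO starting at 1 mM; 0.2% DMSO). Lysis 30 min, antibodies overnight at room temperature, ratio read at 665/620 nm; DC50 fitted with a four-parameter logistic equation.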
# T1 sequence (Q06187 whole entry): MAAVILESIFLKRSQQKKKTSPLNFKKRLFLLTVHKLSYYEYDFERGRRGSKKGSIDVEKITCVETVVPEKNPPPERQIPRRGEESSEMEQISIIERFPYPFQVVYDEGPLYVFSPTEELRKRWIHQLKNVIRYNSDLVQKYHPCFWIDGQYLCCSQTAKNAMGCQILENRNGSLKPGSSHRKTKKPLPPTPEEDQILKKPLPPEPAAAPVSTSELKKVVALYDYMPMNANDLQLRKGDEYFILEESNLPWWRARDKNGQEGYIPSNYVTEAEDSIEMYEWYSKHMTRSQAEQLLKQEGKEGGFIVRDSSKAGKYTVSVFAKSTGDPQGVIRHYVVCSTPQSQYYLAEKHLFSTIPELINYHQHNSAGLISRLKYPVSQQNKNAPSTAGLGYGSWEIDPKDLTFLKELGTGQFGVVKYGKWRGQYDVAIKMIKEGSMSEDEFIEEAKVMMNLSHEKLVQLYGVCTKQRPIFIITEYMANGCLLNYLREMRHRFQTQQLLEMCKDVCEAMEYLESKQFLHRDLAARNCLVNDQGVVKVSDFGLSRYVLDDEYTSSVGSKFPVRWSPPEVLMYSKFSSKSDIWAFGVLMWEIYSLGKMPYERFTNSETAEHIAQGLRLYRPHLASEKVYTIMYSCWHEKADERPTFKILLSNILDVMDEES
row,Structure (SMILES),DC50
1,"Cc1cc(-c2n[nH]c3ncc(-c4ccc(C5CCN(CC6CCN(c7ccc(N8CCC(=O)NC8=O)cc7)CC6)CC5)cc4)cc23)c(F)cc1CNC(=O)c1noc(C(C)(C)C)n1 [Example 222, 5-(tert-butyl)-N-(4-(5-(4-(1-((1-(4-(2,4-dioxotetrahydropyrimidin-1(2H)-yl)phenyl)piperidin-4-yl)methyl)piperidin-4-yl)phenyl)-1H-pyrazolo[3,4-b]pyridin-3-yl)-5-fluoro-2-methylbenzyl)-1,2,4-oxadiazole-3-carboxamide]",16.1 nM
2,"Cc1cc(-c2n[nH]c3ncc(-c4ccc(N5CCN(C6CC(c7ccc([C@H]8CCC(=O)NC8=O)cc7)C6)CC5)cc4)cc23)ccc1[C@@H](C)NC(=O)c1noc(C(C)(C)C)n1 (stereo partly drawn) [Example 224, 5-(tert-butyl)-N—((R)-1-(4-(5-(4-(4-((1S,3r)-3-(4-((R)-2,6-dioxopiperidin-3-yl)phenyl)cyclobutyl)piperazin-1-yl)phenyl)-1H-pyrazolo[3,4-b]pyridin-3-yl)-2-methylphenyl)ethyl)-1,2,4-oxadiazole-3-carboxamide]",6.16 nM
3,"Cc1cc(-c2n[nH]c3ncc(-c4ccc(N5CCN(CC6CCN(c7ccc(N8CCC(=O)NC8=O)cc7)CC6)CC5)cc4)cc23)ccc1[C@@H](C)NC(=O)c1nnc(C(C)(C)C)o1 [Example 225, (R)-5-(tert-butyl)-N-(1-(4-(5-(4-(4-((1-(4-(2,4-dioxotetrahydropyrimidin-1(2H)-yl)phenyl)piperidin-4-yl)methyl)piperazin-1-yl)phenyl)-1H-pyrazolo[3,4-b]pyridin-3-yl)-2-methylphenyl)ethyl)-1,3,4-oxadiazole-2-carboxamide]",9.45 nM
4,"Cc1cc(-c2n[nH]c3ncc(-c4ccc(C5CCN(CCc6ccc(C7CCC(=O)NC7=O)cc6)CC5)cc4)cc23)ccc1[C@@H](C)NC(=O)c1noc(C(C)(C)C)n1 (stereo partly drawn) [Example 227, 5-(tert-butyl)-N-((1R)-1-(4-(5-(4-(1-(4-(2,6-dioxopiperidin-3-yl)phenethyl)piperidin-4-yl)phenyl)-1H-pyrazolo[3,4-b]pyridin-3-yl)-2-methylphenyl)ethyl)-1,2,4-oxadiazole-3-carboxamide]",3.93 nM

# The next compounds have a lower DC50 than those just listed; values first:
row,DC50,Structure (SMILES)
1,1.56 nM,"Cc1cc(-c2n[nH]c3ncc(-c4ccc(N5CCN(C6CC(c7ccc([C@H]8CCC(=O)NC8=O)cc7)C6)CC5)cc4)cc23)ccc1[C@@H](C)NC(=O)c1noc(C(C)(C)C)n1 (stereo partly drawn) [Example 223, 5-(tert-butyl)-N—((R)-1-(4-(5-(4-(4-((1S,3r)-3-(4-((S)-2,6-dioxopiperidin-3-yl)phenyl)cyclobutyl)piperazin-1-yl)phenyl)-1H-pyrazolo[3,4-b]pyridin-3-yl)-2-methylphenyl)ethyl)-1,2,4-oxadiazole-3-carboxamide]"
2,3.04 nM,"Cc1cc(-c2n[nH]c3ncc(-c4ccc(N5CCN(CCOc6cccc7c6C(=O)N([C@@H]6CCC(=O)NC6=O)C7)CC5)cc4)cc23)ccc1[C@@H](C)NC(=O)c1nc(C(C)(C)C)no1 [Example 226, 3-(tert-butyl)-N—((R)-1-(4-(5-(4-(4-(2-((2-((R)-2,6-dioxopiperidin-3-yl)-3-oxoisoindolin-4-yl)oxy)ethyl)piperazin-1-yl)phenyl)-1H-pyrazolo[3,4-b]pyridin-3-yl)-2-methylphenyl)ethyl)-1,2,4-oxadiazole-5-carboxamide]"
3,2.02 nM,"Cc1cc(-c2n[nH]c3ncc(-c4ccc(N5CCN(CC6CCN(c7ccc(N8CCC(=O)NC8=O)c(C)c7)CC6)CC5)nc4)cc23)ccc1CNC(=O)c1nc(C(C)(C)C)no1 [Example 228, 3-(tert-butyl)-N-(4-(5-(6-(4-((1-(4-(2,4-dioxotetrahydropyrimidin-1(2H)-yl)-3-methylphenyl)piperidin-4-yl)methyl)piperazin-1-yl)pyridin-3-yl)-1H-pyrazolo[3,4-b]pyridin-3-yl)-2-methylbenzyl)-1,2,4-oxadiazole-5-carboxamide]"
4,0.427 nM,"Cc1cc(-c2n[nH]c3ncc(-c4ccc(N5CCN(CCc6ccc(C7CCC(=O)NC7=O)cn6)CC5)cc4)cc23)ccc1CNC(=O)c1noc(C(C)(C)C)n1 (centres unmarked) [Example 229, 5-(tert-butyl)-N-(4-(5-(4-(4-(2-(5-(2,6-dioxopiperidin-3-yl)pyridin-2-yl)ethyl)piperazin-1-yl)phenyl)-1H-pyrazolo[3,4-b]pyridin-3-yl)-2-methylbenzyl)-1,2,4-oxadiazole-3-carboxamide]"
